Reference: US9908845B2, “Aryl ethers and uses thereof” (Peloton Therapeutics, Inc., priority 2013, dated 2018)

Experiments:
[1] = system: human VEGFA; assay: plasma human VEGF level of 786-O xenograft bearing mice; format: in vivo; settings: 10, 30 and 100 mg/kg three times at 12 hour intervals, prior to treatment vs 12 h post treatment
[2] = system: 786-O xenograft; assay: tumor size in 786-O xenograft bearing mice, single agent; format: in vivo; settings: 3, 10, 30 and 100 mg/kg BID for 20 days
[3] = system: 786-O renal cell carcinoma cells; assay: In vivo efficacy study, renal cell carcinoma 786-O xenograft model; parameters: species or system SCID/Biege mice
[4] = system: human VEGFA; assay: In vivo PK/PD study: plasma level of human VEGFA by ELISA; parameters: species or system SCID/Biege mice; settings: 10, 30 or 100 mg/kg oral gavage, three times at 12 hour intervals
Procedure: (§1) About 5×10^6 renal cell carcinoma 786-O tumor cells (ATCC® CRL-1932™, VHL and HIF-1α null cell line) in PBS and Matrigel (1:1 in volume) were injected subcutaneously at the right flanks of SCID/Biege mice at 6-7 weeks of age for xenograft development. When the xenografts reached about 450 mm^3 in size, the tumor bearing mice were randomly divided into 4 groups (n=4). Plasma was collected prior to treatment by retro-orbital bleeding. […] All animals were sacrificed at 12 hours post last dose. Tumor, kidney, and plasma were collected from each animal. Total RNA was extracted from the tumors and kidneys. The mRNA levels of HIF-1α, HIF-2α and their respective target genes were determined by qRT-PCR (FIG. 1).

[5] = system: EPO and PGK1 mRNA in mouse kidney; assay: In vivo PK/PD study: mouse kidney mRNA levels by qRT-PCR; parameters: species or system SCID/Biege mice; settings: oral gavage, three times at 12 hour intervals
Procedure: as §1

[6] = system: HIF-2α and HIF-2α-regulated genes (PAI-1, CCND1, VEGFA, and GLUT1); assay: mRNA levels in tumor of 786-O xenograft bearing mice; format: in vivo; settings: renal cell carcinoma 786-O xenograft bearing mice; 10, 30 and 100 mg/kg three times at 12 hour intervals
[7] = molecular target: HIF-2α HIS TAG-PASB Domain; assay: HIF-2α Scintillation Proximity Assay (SPA), probe displacement; format: binding
Procedure: The percent inhibition was determined and IC50 values were calculated using the Dotmatics system based on the following equation: % inhibition=[(high control−sample)/(high control−low control)]×100.

## N#Cc1cc(F)cc(Oc2ccc(S(=O)(=O)C(F)F)c3c2CC(F)(F)[C@H]3O)c1 [Compound 15, 3-[(1S)-7-(difluoromethylsulfonyl)-2,2-difluoro-1-hydroxy-indan-4-yl]oxy-5-fluoro-benzonitrile]
[1]
  plasma level of human VEGFA: reduced
[2]
  tumor size: tumor size reduction and regression
[3]; all treatment groups, 786-O xenograft model
  Reduction of tumor size vs vehicle (t-Test): statistically significant reduction
[4]
  Human VEGFA in the plasma of 786-O tumor-bearing mice: significant reduction
[5]
  Level of EPO mRNA in mouse kidney: reduced
  mRNA level of PGK1 in mouse kidney: remained unchanged
[6]
  mRNA levels of HIF-2α and HIF-2α-regulated genes (PAI-1, CCND1, VEGFA, and GLUT1) in tumor: reduced

## O=S(=O)(c1ccc(Oc2ccc(F)c(Cl)c2)c2c1[C@H](O)C(F)(F)C2)C(F)F [Compound 26, (S)-4-(3-Chloro-4-fluorophenoxy)-7-((difluoromethyl)sulfonyl)-2,2-difluoro-2,3-dihydro-1H-inden-1-ol]
[7]
  IC50: < 5 nM

## CCN(CC)CCNC(=O)c1c(C)[nH]c(/C=C2\C(=O)Nc3ccc(F)cc32)c1C [Sutent, sutent, reference compound]
[3]; 40 mg/kg QD, after 20 days of dosing
  Tumor size Mean ± SEM: 211.59 mm^3
